Counter-ions that a name gives are not always drawn. Where no end group is shown, it is not given here.
How the values were obtained:
[1] = tested on: adult male cannulated Sprague-Dawley rats; assay: Renal function assessment in rats: GFR by FITC-inulin clearance method; conditions: relative to vehicle-treated rats
Experimental: A fluorescein isothiocyanate (FITC)-inulin stock solution was prepared by weighing the FITC-inulin powder, adding it to saline (50 mg/ml), and heating it in boiling water until dissolved. The solution was filtered and dialyzed overnight to remove unbound FITC. The next day, the dialysate was again filtered to sterilize it.
Approximately 1-2 weeks before the study, femoral arterial and venous catheters were implanted in the rats under isoflurane anesthesia. The catheters were exteriorized through a spring tether/swivel system and the instrumented rats were housed in specialized cages.
On the experimental day, rats were administered a NEP inhibitor or its vehicle by oral gavage. Thirty min later, FITC-inulin (10 mg/kg i.v. bolus) was administered via the venous catheter. Blood samples were withdrawn from the arterial catheter at 3, 7, 10, 15, 30, 60, 90, and 120 min after the FITC-inulin injection for plasma FITC-inulin and compound concentrations.
Arterial pressure was continuously monitored throughout the experiment.
The stock solution of FITC-inulin was serially diluted to generate a standard curve. The dosing solution was also diluted and analyzed to determine the exact amount of FITC-inulin injected. […] Concentrations of FITC-inulin in the plasma and dosing solution were determined by linear regression from the standard curve. FITC-inulin AUC(O-infinity) was derived by WinNonlin for each rat's plasma concentration-time curves. GFR (FITC-inulin clearance) was calculated for each animal as the injected dose divided by the AUC.

[2] = molecular target: recombinant human neutral endopeptidase (NEP, EC 3.4.24.11) (Homo sapiens (Human), UniProt P08473); assay: In vitro inhibition of recombinant human neutral endopeptidase (fluorescence lifetime assay); format: biochemical; conditions: 1 hour pre-incubation, effect determined after 1 hour at room temperature, pH 7.4
recombinant human neutral endopeptidase (NEP, EC 3.4.24.11), sequence (P08473 whole entry): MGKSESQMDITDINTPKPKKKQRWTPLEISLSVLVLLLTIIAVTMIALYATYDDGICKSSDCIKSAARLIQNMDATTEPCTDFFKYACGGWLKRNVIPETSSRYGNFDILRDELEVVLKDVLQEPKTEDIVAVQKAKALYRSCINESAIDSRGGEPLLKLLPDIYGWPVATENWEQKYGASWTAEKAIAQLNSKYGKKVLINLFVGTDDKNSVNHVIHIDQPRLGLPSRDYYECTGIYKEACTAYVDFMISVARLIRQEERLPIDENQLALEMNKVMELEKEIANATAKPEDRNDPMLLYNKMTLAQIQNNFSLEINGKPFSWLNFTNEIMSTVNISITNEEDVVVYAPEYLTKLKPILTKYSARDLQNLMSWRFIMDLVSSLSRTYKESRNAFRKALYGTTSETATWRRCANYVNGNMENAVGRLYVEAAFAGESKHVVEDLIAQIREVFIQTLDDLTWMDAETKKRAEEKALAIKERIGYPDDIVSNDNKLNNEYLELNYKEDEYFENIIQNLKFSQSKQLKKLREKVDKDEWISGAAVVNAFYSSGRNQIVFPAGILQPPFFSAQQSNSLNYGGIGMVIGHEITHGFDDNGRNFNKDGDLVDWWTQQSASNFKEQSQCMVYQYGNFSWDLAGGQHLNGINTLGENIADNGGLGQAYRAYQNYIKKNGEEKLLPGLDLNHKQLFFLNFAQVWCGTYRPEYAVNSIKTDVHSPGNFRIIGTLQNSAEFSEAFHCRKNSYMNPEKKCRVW
Text: The activity of a compound for use in the method according to the present invention can be assessed by the following in vitro & in vivo methods and/or by the following in vitro & in vivo methods well-described in the art. See A fluorescence lifetime-based assay for protease inhibitor profiling on human kallikrein 7 Doering K, Meder G, Hinnenberger M, Woelcke J, Mayr L M, Hassiepen U Biomol Screen.
In particular, the in vitro inhibition of recombinant human neutral endopeptidase (NEP, EC 3.4.24.11) can be determined as follows: […]

[3] = tested on: patients with chronic renal insufficiency undergoing cardiac catheterization; conditions: 48 hour infusion at 0.042 μg/kg/min, at-risk patients undergoing cardiac catheterization; cited from earlier work

Row | Compound | IC50 [2] | % GFR increase ([1]; dose 1 mg/kg p.o.) | also measured
1 | CCOC(=O)C[C@@H](Cc1ccc(-c2cccc(Cl)c2)cc1)NC(=O)CCC(=O)O [Example 1-2, (R)-4-(1-(3′-chlorobiphenyl-4-yl)-4-ethoxy-4-oxobutan-2-ylamino)-4-oxobutanoic acid] | – | – | % GFR increase ([1]; dose 0.1 mg/kg p.o.): 23%
2 | CCOC(=O)C[C@@H](Cc1ccc(-c2ccccc2)cc1)NC(=O)CN1CCC[C@H]1C(=O)OCc1ccccc1 [Example 3-11, (S)-benzyl 1-(2-((R)-1-(biphenyl-4-yl)-4-ethoxy-4-oxobutan-2-ylamino)-2-oxoethyl)pyrrolidine-2-carboxylate trifluoroacetic acid salt] | 0.018 µM | – | –
3 | CCCCOC(=O)CCC(=O)N[C@@H](CC(=O)O)Cc1ccc(-c2cccc(Cl)c2)cc1 [Example 3-12, (R)-3-(4-butoxy-4-oxobutanamido)-4-(3′-chlorobiphenyl-4-yl)butanoic acid] | 0.015 µM | 32% | –
4 | CCc1ncc(C(=O)N[C@@H](CC(=O)O)Cc2ccc(-c3cc(Cl)ccc3F)cc2)o1 [Example 9-7] | – | 35% | –
5 | CCOC(=O)[C@H](C)N[C@@H](Cc1ccc(-c2cccc(Cl)c2)cc1)C(=O)Nc1nnn[nH]1 [Example 31, (S)-2-[(S)-2-(3′-chloro-biphenyl-4-yl)-1-(1H-tetrazol-5-ylcarbamoyl)-ethylamino]-propionic acid ethyl ester] | – | – | % GFR increase ([1]; dose 0.1 mg/kg p.o.): 27%
6 | C[C@H](N[C@@H](Cc1ccc(-c2cccc(Cl)c2)cc1)C(=O)Nc1cc(O)no1)C(=O)O [Example 32-4, (S)-2-[(S)-2-(3′-Chloro-biphenyl-4-yl)-1-(3-hydroxy-isoxazol-5-ylcarbamoyl)-ethylamino]-propionic acid] | 0.0024 µM | – | –
7 | CCOC(=O)[C@H](C)C[C@@H](Cc1ccc(-c2ccccc2)cc1)NC(=O)CCC(=O)O [Example 34, (2R,4S)-5-Biphenyl-4-yl-4-(3-carboxy-propionylamino)-2-methyl-pentanoic acid ethyl ester] | – | – | % GFR increase ([1]; dose 100 mg/kg p.o.): 37%
8 | CCOC(=O)[C@H](C)C[C@@H](Cc1ccc(-c2cccc(Cl)c2)cc1)NC(=O)CCC(=O)O [Example 35, (2R,4S)-4-(3-carboxy-propionylamino)-5-(3′-chloro-biphenyl-4-yl)-2-methyl-pentanoic acid ethyl ester] | – | 22% | –
9 | Human Endogenous atrial natriuretic peptides (SLRRSSCFGGRMDRIGAQSGLGCNSFRY; ends and bridges not checked; cysteine pairing not given here; UniProt P01160 124-151, looked up) [Human ANP, "Human Endogenous atrial natriuretic peptides (ANP) infusions have been available in Japan for use in acute decompensated heart failure"; infused at 0.042 μg/kg/min] | – | – | reduction of the incidence of contrast-induced nephropathy [3]: 70%

Source: patent US8993631B2, “Method of treating contrast-induced nephropathy” (Novartis AG, priority 2010, dated 2015)
